According to patent publication US20160324796A1, “COMPOSITIONS AND THEIR USE TO TREAT COMPLICATIONS OF ANEURYSMAL SUBARACHNOID HEMMORRHAGE” (Edge Therapeutics, Inc., priority 2007, published 2016):
Like-named read-outs stand apart in the source and are kept apart here.

What was measured:
[1] = mongrel, dog, in vivo
Excerpt: (§1) On days 8 and 15, the animals were anesthetized, and angiography, removal of CSF from the cistern magna and collection of plasma, were repeated. Other endpoints included daily blood pressure measurements, behavior assessment, and brain and spinal cord pathology. Animals were euthanized under anesthesia on day 28 or 49, perfused with PBS and then neutral buffered formalin, and the brains subjected to histological analysis.
The animals are grouped according to whether the animals died or were euthanized at an unscheduled time (DOS) or underwent scheduled necropsy (SNC).

[2] = Preclinical Study 2: CSF (cisterna magna) concentration of nimodipine; assay type: in vivo, mongrel dogs; details: oral nimodipine 0.86 mg/kg six times per day
Excerpt: as §1
Values are means±standard error of the mean (n=8 per measurement).

[3] = cited from earlier work
[4] = Rats, Male, cited from earlier work
[5] = Plasma nimodipine after single subcutaneous injection of nimodipine PLGA microparticles; assay type: in vivo, Wistar rats; details: rats, up to day 15
Experimental: The rats were divided into separate treatment groups: one control group for treatment with a nimodipine reference solution (control group) and several test groups for treatment with exemplary nimodipine formulations (microparticle test group) according to the described invention. […] The test article was reconstituted with an injection vehicle volume of 0.15 or 0.70 ml, and the entire volume of each reconstituted vial was drawn up immediately and administered individually to each animal. Blood samples were collected from two alternating cohorts of 2 or 3 animals per cohort in the microparticle formulation-injected groups. Collection was immediately before injection and then 1, 12, and 24 hours post dose, and on days 4, 8, 11, and 15. After the last blood sample collection interval, the surviving animals were euthanized via carbon dioxide inhalation. Euthanasia was confirmed by cervical dislocation and anesthesia.

[6] = Mice, Male, cited from earlier work
[7] = cited from earlier work; remark: listed apart in the source

## COCCOC(=O)C1=C(C)NC(C)=C(C(=O)OC(C)C)C1c1cccc([N+](=O)[O-])c1 (stereo not shown) [nimodipine, Isopropyl 2-methoxyethyl 1,4-dihydro-2,6-dimethyl-4-(m-nitrophenyl)-3,5-pyridinedicarboxylate]
[1]; female, 28 d
  Brain discoloration, red, # of animals: 0
  Brain focus/foci, red, # of animals: 0
  Brain nodule, # of animals: 0
  Brain: chromatolysis, central, neuronal; minimal: 0
  Brain: degeneration, axonal/myelin; mild: 0
  Brain: degeneration, axonal/myelin; minimal: 0
  Brain: degeneration; mild: 0
  Brain: degeneration; minimal: 0
  Brain: fibroplasia; mild: 0
  Brain: fibroplasia; minimal: 0
  Brain: granulation tissue; mild: 0
  Brain: granulation tissue; minimal: 0
  Brain: hemorrhage; minimal: 0
  Brain: hemorrhage; moderate: 0
  Brain: inflammation, granulomous; minimal: 0
  Brain: inflammation, meningeal; minimal: 0
  Brain: inflammation, subacute/chronic; mild: 0
  Brain: macrophages, pigmented; mild: 0
  Brain: macrophages, pigmented; minimal: 0
  Brain: mineralization focal; minimal: 0
  Brain: neovascularization; minimal: 0
  Brain: within normal limits: 0
  Spinal Cord, Cervical: degeneration, axonal/myelin; minimal: 0
  Spinal Cord, Cervical: fibroplasia; minimal: 0
  Spinal Cord, Cervical: fibroplasia; moderate: 0
  Spinal Cord, Cervical: inflammation, granulomatous; minimal: 0
  Spinal Cord, Cervical: inflammation, subacute/chronic; mild: 0
  Spinal Cord, Cervical: macrophages, pigmented; minimal: 0
  Spinal Cord, Cervical: within normal limits: 0
  Spinal Cord, Lumbar: fibroplasia; minimal: 0
  Spinal Cord, Lumbar: hemorrhage; minimal: 0
  Spinal Cord, Lumbar: mineralization; minimal: 0
  Spinal Cord, Lumbar: within normal limits: 0
  Spinal Cord, Thoracic: fibroplasia; minimal: 0
  Spinal Cord, Thoracic: hemorrhage; minimal: 0
  Spinal Cord, Thoracic: inflammation, granulomatous; minimal: 0
  Spinal Cord, Thoracic: inflammation, subacute/chronic; minimal: 0
  Spinal Cord, Thoracic: macrophages, pigmented; minimal: 0
  Spinal Cord, Thoracic: within normal limits: 0
[1]; female, 49 d
  Brain discoloration, red, # of animals: 0
  Brain focus/foci, red, # of animals: 0
  Brain nodule, # of animals: 0
  Brain: chromatolysis, central, neuronal; minimal: 0
  Brain: degeneration, axonal/myelin; mild: 0
  Brain: degeneration, axonal/myelin; minimal: 0
  Brain: degeneration; mild: 0
  Brain: fibroplasia; mild: 0
  Brain: fibroplasia; minimal: 0
  Brain: granulation tissue; mild: 0
  Brain: granulation tissue; minimal: 0
  Brain: hemorrhage; mild: 0
  Brain: hemorrhage; minimal: 0
  Brain: hemorrhage; moderate: 0
  Brain: infiltration, lymphoid, perivascular; minimal: 0
  Brain: inflammation, granulomous; mild: 0
  Brain: inflammation, granulomous; minimal: 0
  Brain: inflammation, meningeal; minimal: 0
  Brain: inflammation, subacute/chronic; mild: 0
  Brain: macrophages, pigmented; mild: 0
  Brain: macrophages, pigmented; minimal: 0
  Brain: mineralization focal; minimal: 0
  Brain: neovascularization; minimal: 0
  Brain: within normal limits: 0
  Spinal Cord, Cervical: degeneration, axonal/myelin; minimal: 0
  Spinal Cord, Cervical: fibroplasia; mild: 0
  Spinal Cord, Cervical: fibroplasia; minimal: 0
  Spinal Cord, Cervical: fibroplasia; moderate: 0
  Spinal Cord, Cervical: hemorrhage; minimal: 0
  Spinal Cord, Cervical: inflammation, granulomatous; minimal: 0
  Spinal Cord, Cervical: inflammation, granulomatous; moderate: 0
  Spinal Cord, Cervical: inflammation, subacute/chronic; mild: 0
  Spinal Cord, Cervical: macrophages, pigmented; minimal: 0
  Spinal Cord, Cervical: within normal limits: 0
  Spinal Cord, Lumbar: fibroplasia; minimal: 0
  Spinal Cord, Lumbar: hemorrhage; minimal: 0
  Spinal Cord, Lumbar: mineralization; minimal: 0
  Spinal Cord, Lumbar: within normal limits: 0
  Spinal Cord, Thoracic: fibroplasia; minimal: 0
  Spinal Cord, Thoracic: hemorrhage; minimal: 0
  Spinal Cord, Thoracic: inflammation, granulomatous; minimal: 0
  Spinal Cord, Thoracic: inflammation, subacute/chronic; minimal: 0
  Spinal Cord, Thoracic: macrophages, pigmented; minimal: 0
  Spinal Cord, Thoracic: within normal limits: 0
[1]; male, 28 d
  Brain discoloration, red, # of animals: 0
  Brain focus/foci, red, # of animals: 0
  Brain nodule, # of animals: 0
  Brain: chromatolysis, central, neuronal; minimal: 0
  Brain: degeneration, axonal/myelin; mild: 0
  Brain: degeneration, axonal/myelin; minimal: 0
  Brain: degeneration; mild: 0
  Brain: degeneration; minimal: 0
  Brain: granulation tissue; mild: 0
  Brain: granulation tissue; minimal: 0
  Brain: hemorrhage; mild: 0
  Brain: hemorrhage; minimal: 0
  Brain: hemorrhage; moderate: 0
  Brain: infiltration, lymphoid, perivascular; minimal: 0
  Brain: inflammation, meningeal; minimal: 0
  Brain: inflammation, subacute/chronic; mild: 0
  Brain: inflammation, subacute/chronic; minimal: 0
  Brain: macrophages, pigmented; minimal: 0
  Brain: mineralization focal; minimal: 0
  Brain: neovascularization; minimal: 0
  Brain: within normal limits: 0
  Spinal Cord, Cervical: degeneration, axonal/myelin; minimal: 0
  Spinal Cord, Cervical: fibroplasia; minimal: 0
  Spinal Cord, Cervical: inflammation, granulomatous; moderate: 0
  Spinal Cord, Cervical: within normal limits: 0
  Spinal Cord, Lumbar: fibroplasia; minimal: 0
  Spinal Cord, Lumbar: hemorrhage; minimal: 0
  Spinal Cord, Lumbar: mineralization; minimal: 0
  Spinal Cord, Lumbar: within normal limits: 0
  Spinal Cord, Thoracic: fibroplasia; minimal: 0
  Spinal Cord, Thoracic: hemorrhage; minimal: 0
  Spinal Cord, Thoracic: inflammation, granulomatous; minimal: 0
  Spinal Cord, Thoracic: inflammation, subacute/chronic; minimal: 0
  Spinal Cord, Thoracic: macrophages, pigmented; minimal: 0
  Spinal Cord, Thoracic: within normal limits: 0
[1]; male, 49 d
  Brain discoloration, red, # of animals: 0
  Brain focus/foci, red, # of animals: 0
  Brain nodule, # of animals: 0
  Brain: chromatolysis, central, neuronal; minimal: 0
  Brain: degeneration, axonal/myelin; mild: 0
  Brain: degeneration, axonal/myelin; minimal: 0
  Brain: degeneration; mild: 0
  Brain: degeneration; minimal: 0
  Brain: fibroplasia; minimal: 0
  Brain: granulation tissue; mild: 0
  Brain: granulation tissue; minimal: 0
  Brain: hemorrhage; mild: 0
  Brain: hemorrhage; minimal: 0
  Brain: hemorrhage; moderate: 0
  Brain: infiltration, lymphoid, perivascular; minimal: 0
  Brain: inflammation, granulomous; mild: 0
  Brain: inflammation, meningeal; minimal: 0
  Brain: inflammation, subacute/chronic; mild: 0
  Brain: macrophages, pigmented; mild: 0
  Brain: macrophages, pigmented; minimal: 0
  Brain: mineralization focal; minimal: 0
  Brain: neovascularization; minimal: 0
  Brain: within normal limits: 0
  Spinal Cord, Cervical: degeneration, axonal/myelin; minimal: 0
  Spinal Cord, Cervical: fibroplasia; minimal: 0
  Spinal Cord, Cervical: fibroplasia; moderate: 0
  Spinal Cord, Cervical: hemorrhage; minimal: 0
  Spinal Cord, Cervical: inflammation, granulomatous; minimal: 0
  Spinal Cord, Cervical: inflammation, granulomatous; moderate: 0
  Spinal Cord, Cervical: inflammation, subacute/chronic; mild: 0
  Spinal Cord, Cervical: macrophages, pigmented; minimal: 0
  Spinal Cord, Lumbar: fibroplasia; minimal: 0
  Spinal Cord, Lumbar: hemorrhage; minimal: 0
  Spinal Cord, Lumbar: mineralization; minimal: 0
  Spinal Cord, Lumbar: within normal limits: 0
  Spinal Cord, Thoracic: fibroplasia; minimal: 0
  Spinal Cord, Thoracic: hemorrhage; minimal: 0
  Spinal Cord, Thoracic: inflammation, granulomatous; minimal: 0
  Spinal Cord, Thoracic: inflammation, subacute/chronic; minimal: 0
  Spinal Cord, Thoracic: macrophages, pigmented; minimal: 0
  Spinal Cord, Thoracic: within normal limits: 0
[2]
  CSF nimodipine concentrations: low or undetectable
[3]; Dogs, Male and female, Intravenous
  LD50: 4 mg/kg
[3]; both, dog, in vivo, po
  LD50: 1000 to 2000 mg/kg
[4]; Intravenous
  LD50: 16 mg/kg
[4]; Oral
  LD50: 6599 mg/kg
[5]
  plasma nimodipine concentrations over time: sustained release of nimodipine over time
[6]; Intravenous
  LD50: 33 mg/kg
[6]; Oral
  LD50: 3562 mg/kg
[7]; Rabbits, Female, Intravenous
  LD50: 2.5 mg/kg
[7]; female, rabbit, in vivo, po
  LD50: 5000 mg/kg
